The NIST ThermoML archive (doi:10.1021/acs.jced.8b00692)

Experiment: xn = mol fraction of the nth substance listed
Conditions: 102 kPa, Liquid; for viscosity: Concentric cylinders viscometry; for speed of sound: Frequency=3 MHz, Single path-length method; for mass density: Vibrating tube method

CCCCCCCC1CCCCC1 [heptylcyclohexane] + CCCCCCCCCCCCCCCC
Conditions | mass density [kg/m3] | speed of sound [m/s] | viscosity [mPa·s]
293.15 K, x1 = 0.1997 | 779.33 | 1358.9 | 3.34
293.15 K, x1 = 0.4002 | 785.92 | 1362 | 3.2
293.15 K, x1 = 0.5001 | 789.55 | 1363.4 | 3.13
293.15 K, x1 = 0.6006 | 793.34 | 1365.3 | 3.05
293.15 K, x1 = 0.7998 | 801.63 | 1368.8 | 2.92
293.15 K, x1 = 1 | 810.99 | 1374.4 | 2.8
303.15 K, x1 = 0.1997 | 772.4 | 1321.7 | 2.66
303.15 K, x1 = 0.4002 | 778.99 | 1324.4 | 2.56
303.15 K, x1 = 0.5001 | 782.6 | 1326.1 | 2.51
303.15 K, x1 = 0.6006 | 786.39 | 1327.5 | 2.45
303.15 K, x1 = 0.7998 | 794.64 | 1331.3 | 2.35
303.15 K, x1 = 1 | 803.96 | 1336.1 | 2.26
313.15 K, x1 = 0.1997 | 765.47 | 1285.1 | 2.17
313.15 K, x1 = 0.4002 | 772.06 | 1287.5 | 2.08
313.15 K, x1 = 0.5001 | 775.66 | 1289.4 | 2.05
313.15 K, x1 = 0.6006 | 779.44 | 1290.6 | 2.01
313.15 K, x1 = 0.7998 | 787.98 | 1294.3 | 1.93
313.15 K, x1 = 1 | 796.93 | 1298.7 | 1.86
323.15 K, x1 = 0.1997 | 758.54 | 1249.3 | 1.8
323.15 K, x1 = 0.4002 | 765.13 | 1251.5 | 1.73
323.15 K, x1 = 0.5001 | 768.71 | 1253.4 | 1.71
323.15 K, x1 = 0.6006 | 772.48 | 1254.5 | 1.67
323.15 K, x1 = 0.7998 | 780.65 | 1258.1 | 1.61
323.15 K, x1 = 1 | 789.89 | 1262.1 | 1.56
333.15 K, x1 = 0.1997 | 751.62 | 1214.4 | 1.52
333.15 K, x1 = 0.4002 | 758.19 | 1216.7 | 1.46
333.15 K, x1 = 0.5001 | 761.75 | 1218.2 | 1.45
333.15 K, x1 = 0.6006 | 765.51 | 1219.4 | 1.42
333.15 K, x1 = 0.7998 | 773.64 | 1222.8 | 1.37
333.15 K, x1 = 1 | 782.83 | 1226.5 | 1.33
343.15 K, x1 = 0.1997 | 744.7 | – | 1.31
343.15 K, x1 = 0.4002 | 751.3 | – | 1.25
343.15 K, x1 = 0.5001 | 754.8 | – | 1.25
343.15 K, x1 = 0.6006 | 758.6 | – | 1.22
343.15 K, x1 = 0.7998 | 766.7 | – | 1.18
343.15 K, x1 = 1 | 775.8 | – | 1.15
353.15 K, x1 = 0.1997 | 737.7 | – | 1.12
353.15 K, x1 = 0.4002 | 744.3 | – | 1.09
353.15 K, x1 = 0.5001 | 747.8 | – | 1.07
353.15 K, x1 = 0.6006 | 751.6 | – | 1.06
353.15 K, x1 = 0.7998 | 759.6 | – | 1.03
353.15 K, x1 = 1 | 768.7 | – | 0.993
363.15 K, x1 = 0.1997 | 730.8 | – | 1
363.15 K, x1 = 0.4002 | 737.8 | – | 0.954
363.15 K, x1 = 0.5001 | 740.7 | – | 0.962
363.15 K, x1 = 0.6006 | 744.5 | – | 0.932
363.15 K, x1 = 0.7998 | 752.6 | – | 0.903
363.15 K, x1 = 1 | 761.6 | – | 0.892
373.15 K, x1 = 0.1997 | 723.7 | – | 0.866
373.15 K, x1 = 0.4002 | 730.3 | – | 0.845
373.15 K, x1 = 0.5001 | 733.7 | – | 0.834
373.15 K, x1 = 0.6006 | 737.5 | – | 0.827
373.15 K, x1 = 0.7998 | 745.4 | – | 0.803
373.15 K, x1 = 1 | 754.4 | – | 0.776

CCCCCC1CCCCC1 [pentylcyclohexane] + CCCCCCCCCCCCCCCC
Conditions | mass density [kg/m3] | speed of sound [m/s] | viscosity [mPa·s]
293.15 K, x1 = 0.2004 | 777.53 | 1354.6 | 3.1
293.15 K, x1 = 0.4 | 782.39 | 1351.9 | 2.74
293.15 K, x1 = 0.4999 | 785.18 | 1350.6 | 2.56
293.15 K, x1 = 0.5999 | 788.23 | 1349.4 | 2.38
293.15 K, x1 = 0.8006 | 795.35 | 1347.2 | 2.03
293.15 K, x1 = 1 | 804.11 | 1345.9 | 1.7
303.15 K, x1 = 0.2004 | 770.57 | 1317.2 | 2.49
303.15 K, x1 = 0.4 | 775.39 | 1314.4 | 2.22
303.15 K, x1 = 0.4999 | 778.15 | 1313 | 2.08
303.15 K, x1 = 0.5999 | 781.16 | 1311.6 | 1.95
303.15 K, x1 = 0.8006 | 788.18 | 1309 | 1.68
303.15 K, x1 = 1 | 796.8 | 1306.4 | 1.42
313.15 K, x1 = 0.2004 | 763.62 | 1280.5 | 2.04
313.15 K, x1 = 0.4 | 768.39 | 1277.6 | 1.83
313.15 K, x1 = 0.4999 | 771.11 | 1276 | 1.73
313.15 K, x1 = 0.5999 | 774.09 | 1274.5 | 1.61
313.15 K, x1 = 0.8006 | 781 | 1271.3 | 1.41
313.15 K, x1 = 1 | 789.47 | 1267.8 | 1.21
323.15 K, x1 = 0.2004 | 756.66 | 1244.5 | 1.7
323.15 K, x1 = 0.4 | 761.38 | 1241.4 | 1.54
323.15 K, x1 = 0.4999 | 764.07 | 1239.7 | 1.46
323.15 K, x1 = 0.5999 | 766.99 | 1237.9 | 1.37
323.15 K, x1 = 0.8006 | 773.8 | 1234.3 | 1.21
323.15 K, x1 = 1 | 782.12 | 1230.1 | 1.04
333.15 K, x1 = 0.2004 | 749.7 | 1209.3 | 1.44
333.15 K, x1 = 0.4 | 754.35 | 1206 | 1.31
333.15 K, x1 = 0.4999 | 757 | 1204.2 | 1.24
333.15 K, x1 = 0.5999 | 759.88 | 1202.3 | 1.18
333.15 K, x1 = 0.8006 | 766.57 | 1198 | 1.03
333.15 K, x1 = 1 | 774.74 | 1193.4 | 0.895
343.15 K, x1 = 0.2004 | 742.8 | – | 1.24
343.15 K, x1 = 0.4 | 747.4 | – | 1.14
343.15 K, x1 = 0.4999 | 749.9 | – | 1.08
343.15 K, x1 = 0.5999 | 752.9 | – | 1.03
343.15 K, x1 = 0.8006 | 759.4 | – | 0.916
343.15 K, x1 = 1 | 767.3 | – | 0.799
353.15 K, x1 = 0.2004 | 735.8 | – | 1.07
353.15 K, x1 = 0.4 | 740.3 | – | 0.985
353.15 K, x1 = 0.4999 | 742.8 | – | 0.937
353.15 K, x1 = 0.5999 | 745.7 | – | 0.903
353.15 K, x1 = 0.8006 | 752.2 | – | 0.809
353.15 K, x1 = 1 | 759.9 | – | 0.709
363.15 K, x1 = 0.2004 | 728.7 | – | 0.955
363.15 K, x1 = 0.4 | 733.2 | – | 0.884
363.15 K, x1 = 0.4999 | 735.6 | – | 0.843
363.15 K, x1 = 0.5999 | 738.5 | – | 0.805
363.15 K, x1 = 0.8006 | 744.8 | – | 0.724
363.15 K, x1 = 1 | 752.4 | – | 0.637
